# Where two headings read alike, the source gives them in different places.
# Legend:
# basophil degranulation = test: Study-2 ex vivo basophil degranulation (anti-FcεR1-driven CD63 expression, whole blood); conditions: Study-2, single dose, by 4 h post-dose on day 1, range across groups
# Description: Subjects were assessed for basophil degranulation following stimulation at multiple time points, as described in Online Resource S1.
# Degranulation of basophils was determined in whole blood by monitoring increased cell surface CD63 expression utilizing flow cytometry in an ex vivo stimulation assay driven by anti-IgE (Study-1) or anti-FcεR1 (Study-2). Briefly, blood was collected in lithium-heparin tubes (BD Biosciences, Oxford, UK) and stimulated with IgE or FcεRI cross-linking antibodies (eBiosciences, Hatfield, UK) for 12 min at 37°C. Following red blood cell lysis by addition of BD FACSlyse (BD Biosciences, Oxford, UK), samples were centrifuged and the supernatant discarded. The cell pellet was washed in PBS and re-suspended in fixative (5% formaldehyde in PBS). CD63 expression was determined on basophils (side-scatter low, CD123+HLA-DR-) and detected by flow cytometry using the BD antibody cocktail containing CD63, CD123, and anti-HLA-DR.
# [1] = Study-1 Part-A single ascending dose pharmacokinetics (plasma and urine); assay type: in vivo, human; conditions: for Fe: fraction excreted in urine; for AUC / AUC(0-t) / Cmax / Vd/F / half-life / Tmax / CL renal: human, oral; for AUC / AUC(0-t) / Cmax / Vd/F / half-life / Tmax: plasma; for Vd/F: read-out: Vz/F; for CL renal: urine and plasma; for Ae(0–t): urine
# From the text: These were phase I, randomised, double-blind, placebo-controlled studies designed to evaluate the safety, tolerability, PK and PD profiles of seletalisib following oral administration of single ascending doses and multiple ascending doses. Study-1 was a first-in-human, double-blind (sponsor-, investigator- and subject-blind) study that had two parts: Part-A evaluated seletalisib (single ascending doses) in healthy adults (including evaluation of food effects; Table 1); Part-B evaluated seletalisib (multiple ascending doses) in healthy adults and subjects with mild-to-moderate psoriasis. Study-2 was also a double-blind study of seletalisib (single and multiple ascending doses) in healthy subjects, which investigated higher doses.
# Plasma concentrations of seletalisib were measured by high-performance liquid chromatography with tandem mass spectrometry (see Online Resource S1 for further details). The following PK parameters were determined in each study: AUC for seletalisib, maximum observed plasma concentration of seletalisib after a single dose (Cmax) and at steady-state (Cmaxss), time of occurrence of Cmax (tmax, obtained directly from the observed plasma concentration-time curves), minimum observed plasma concentration of seletalisib at steady-state immediately before the next dose would be administered (Ctrough), apparent terminal half-life, apparent volume of distribution after single dosing (Vz/F) and at steady-state (Vzss/F) and apparent total body clearance after single dosing (CL/F) and at steady-state (CLss/F). Accumulation factor based on AUC(0–24) [R(AUC)] and accumulation factor based on Cmax [R(Cmax)] were determined on multiple dose day 14. The following study-specific PK parameters were also determined: Study-1, total amount of seletalisib excreted in urine (Ae), renal clearance (CLr) and fraction of drug excreted in urine; Study-2, AUC(0–10) in BID dose groups, terminal elimination rate constant in plasma (λz), mean residence time (MRT) and linearity factor (LF [AUC(0–24)ss/AUC]).
# Methods for the calculation of seletalisib PK parameters are detailed in Online Resource S1.
# Seletalisib PK parameters were calculated via non-compartmental analysis methods from the individual concentration-time data using Phoenix WinNonlin version 6.2 (Certara, Princeton, NJ, USA). Urine (Study-1 only) and plasma PK parameters of seletalisib were reported for each subject and summarised by study part and dose group. Geometric mean and percentage geometric coefficient of variation (GeoCV%) were reported for all parameters except for tmax, which was reported using median and range. Dose proportionality for AUC and Cmax at Day_1 (Study-1 [Part-A & Part-B]; Study-2, single ascending dose-Day_1) and at steady state at Day_14 (Study-1 [Part-B]; Study-2, multiple ascending dose-Day_14) was examined via the power model and reported graphically. In Study-1, an assessment of food effect (fed versus fasted) was made for Cmax and AUC from the data for subjects who received the same dose in fed and fasted states in Part-A.
# [2] = Study-1 Part-A, single dose 1 mg fasted, geo mean (GeoCV%)
# [3] = Study-1 Part-A, single dose 5 mg fasted, geo mean (GeoCV%)
# [4] = Study-1 Part-A, single dose 5 mg fed, geo mean (GeoCV%)
# [5] = Study-1 Part-A, single dose 10 mg fasted, geo mean (GeoCV%)
# [6] = Study-1 Part-A, single dose 15 mg fasted, geo mean (GeoCV%)
# [7] = 1 mg, Study-1 Part-A, single dose 1 mg fasted, geo mean (GeoCV%)
# [8] = 5 mg, Study-1 Part-A, single dose 5 mg fasted, geo mean (GeoCV%)
# [9] = 5 mg, Study-1 Part-A, single dose 5 mg fed, geo mean (GeoCV%)
# [10] = 10 mg, Study-1 Part-A, single dose 10 mg fasted, geo mean (GeoCV%)
# [11] = 15 mg, Study-1 Part-A, single dose 15 mg fasted, geo mean (GeoCV%)
structure (smiles),measurement,setting,value
"[O-][n+]1cccc(-c2nc3c(Cl)cccc3cc2[C@@H](Nc2ncnc3cccnc23)C(F)(F)F)c1 [Seletalisib, seletalisib]",inhibition of basophil degranulation,basophil degranulation,80.3–92.5%
same,food effect,"[1]; Study-1 Part-A, 5 mg fed (high-fat, high-calorie meal) vs fasted",No clinically significant food effect
same,geometric mean fraction of drug excreted in urine,"[1]; Study-1 Part-A, parent drug, across dose groups",< 6%
same,CL/F,[1]; [2],1.93 (33.4) L/h
same,CL/F,[1]; [3],2.19 (34.3) L/h
same,CL/F,[1]; [4],1.87 (44.6) L/h
same,CL/F,[1]; [5],1.93 (17.3) L/h
same,CL/F,[1]; [6],1.93 (25.4) L/h
same,Fe,[1]; [2],5.79 (56.6) %
same,Fe,[1]; [3],5.37 (35.3) %
same,Fe,[1]; [4],4.81 (49.6) %
same,Fe,[1]; [5],4.76 (66.0) %
same,Fe,[1]; [6],4.59 (33.6) %
same,AUC,[1]; [7],518 ng·h/mL
same,AUC(0-t),[1]; [7],473 ng·h/mL
same,Cmax,[1]; [7],26.7 ng/mL
same,Vd/F,[1]; [7],51.5 L
same,half-life,"[1]; 1 mg, Study-1 Part-A, single dose 1 mg fasted, geo mean (GeoCV%), read-out: t1/2 (converted)",18.5 h
same,Tmax,"[1]; 1 mg, Study-1 Part-A, single dose 1 mg fasted, median (range), read-out: tmax",1.77 h
same,AUC,[1]; [8],2290 ng·h/mL
same,AUC(0-t),[1]; [8],2100 ng·h/mL
same,Cmax,[1]; [8],109 ng/mL
same,Vd/F,[1]; [8],59.2 L
same,half-life,"[1]; 5 mg, Study-1 Part-A, single dose 5 mg fasted, geo mean (GeoCV%), read-out: t1/2 (converted)",18.8 h
same,Tmax,"[1]; 5 mg, Study-1 Part-A, single dose 5 mg fasted, median (range), read-out: tmax",2.01 h
same,AUC,[1]; [9],2680 ng·h/mL
same,AUC(0-t),[1]; [9],2480 ng·h/mL
same,Cmax,[1]; [9],105 ng/mL
same,Vd/F,[1]; [9],47.6 L
same,half-life,"[1]; 5 mg, Study-1 Part-A, single dose 5 mg fed, geo mean (GeoCV%), read-out: t1/2 (converted)",17.7 h
same,Tmax,"[1]; 5 mg, Study-1 Part-A, single dose 5 mg fed, median (range), read-out: tmax",4 h
same,AUC,[1]; [10],5170 ng·h/mL
same,AUC(0-t),[1]; [10],4800 ng·h/mL
same,Cmax,[1]; [10],279 ng/mL
same,Vd/F,[1]; [10],54 L
same,half-life,"[1]; 10 mg, Study-1 Part-A, single dose 10 mg fasted, geo mean (GeoCV%), read-out: t1/2 (converted)",19.4 h
same,Tmax,"[1]; 10 mg, Study-1 Part-A, single dose 10 mg fasted, median (range), read-out: tmax",1.77 h
same,AUC,[1]; [11],7760 ng·h/mL
same,AUC(0-t),[1]; [11],7000 ng·h/mL
same,Cmax,[1]; [11],313 ng/mL
same,Vd/F,[1]; [11],58.7 L
same,half-life,"[1]; 15 mg, Study-1 Part-A, single dose 15 mg fasted, geo mean (GeoCV%), read-out: t1/2 (converted)",21.1 h
same,Tmax,"[1]; 15 mg, Study-1 Part-A, single dose 15 mg fasted, median (range), read-out: tmax",3 h
same,half-life,"[1]; Study-1, range across dose groups, read-out: geometric mean t1/2",17.7 to 21.1 h
same,Tmax,"[1]; Study-1 Part-A, single dose, range across fasted treatment groups, read-out: median tmax",1.8 to 3 h
same,CL renal,[1]; [7],1.87 mL/min
same,CL renal,[1]; [8],1.95 mL/min
same,CL renal,[1]; [9],1.5 mL/min
same,CL renal,[1]; [10],1.53 mL/min
same,CL renal,[1]; [11],1.48 mL/min
same,Ae(0–t),[1]; [2],0.058 (56.6) mg
same,Ae(0–t),[1]; [3],0.269 (35.3) mg
same,Ae(0–t),[1]; [4],0.241 (49.6) mg
same,Ae(0–t),[1]; [5],0.476 (66.0) mg
same,Ae(0–t),[1]; [6],0.689 (33.6) mg
